Measurements reported in US8980911B2, “Heterocyclic compounds as protein kinase inhibitors” (Daiichi Sankyo Company, Limited, priority 2011, dated 2015).

Experiments:
Type in all cases: biochemical
JAK1 = biological target: T1, JAK1 (Homo sapiens, UniProt P23458); experiment: In vitro enzyme assay (cell-free HTRF kinase assay), JAK1; details: catalytic domain aa 850-1154, GST-tag; ATP 60 μM, SRCtide 400 nM, reaction 120 min
T1 construct: JAK1 (aa 850-1154) and TYK2 (aa 871-1187) are expressed with an N-terminally fused GST-tag; GST (N); purchased Carna Bioscience, Inc; host or cells: baculovirus expression system
T1 sequence (P23458 850-1154): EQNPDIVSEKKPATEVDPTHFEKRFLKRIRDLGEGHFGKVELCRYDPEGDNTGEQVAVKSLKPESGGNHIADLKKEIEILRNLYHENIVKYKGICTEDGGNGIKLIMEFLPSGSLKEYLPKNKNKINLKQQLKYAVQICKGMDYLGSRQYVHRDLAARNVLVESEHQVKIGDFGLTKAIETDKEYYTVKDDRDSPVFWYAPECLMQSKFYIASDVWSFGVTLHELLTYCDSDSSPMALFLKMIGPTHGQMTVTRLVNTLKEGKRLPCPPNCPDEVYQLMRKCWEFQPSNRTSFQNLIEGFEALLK
Protocol: (§1) Kinase buffer [50 mM HEPES (pH 7.5), 1 mM EGTA, 10 mM MgCl2, 2 mM DTT and 0.01% Tween-20) was prepared and dilutions of a compound of formula (I) and other reagents were subsequently made in it. Two times concentrated compound of formula (I) solution: A compound of formula (I) was diluted to 100-fold final concentration in DMSO, followed by 50-fold dilution with Kinase buffer (1% DMSO final concentration). Four times concentrated Substrate/ATP mix solution: Biotin-SRCtide and ATP were diluted to 4-fold final concentration in Kinase buffer. Biotin-SRCtide solution (purchased from Anaspec) was mixed with ATP solution (1:1). Four times concentrated Enzyme solution: JAK1 or JAK2 or JAK3 or TYK2 enzyme [Human baculo virus expressed JAK1, JAK2, JAK3 and TYK2 were purchased from Carna Bioscience, Inc. All enzymes only contain the catalytic domain. JAK1 (aa 850-1154) and TYK2 (aa 871-1187) are expressed with an N-terminally fused GST-tag, and JAK2 and JAK3 with an N-terminally fused His-tag] was diluted to 4-fold final concentration in Kinase buffer and always kept on ice. Detection buffer: LANCE detection buffer (10 times concentrated) was diluted 10-fold in H2O. Four times concentrated stop solution: EDTA was diluted to a concentration of 40 mM in detection buffer. Four times concentrated ULight/Eu-antibody (from Perkin Elmer) mix solution: ULight-Streptavidin was diluted to a concentration of 100 nM (25 ng/mL final concentrations) and Eu-anti-phospho-Tyrosine (PT66) (from Perkin Elmer) was diluted to a concentration of 8 nM (2 ng/mL final concentration) in detection buffer.
(§2) Cell-free in vitro kinase assay was performed in 384 well plates. Two times concentrated compound solution (5 μL) was pipetted into a HTS 384SV Small Volume Plate. Four times concentrated Substrate/ATP mix (2.5 μL) solution was added along with 4 times concentrated Enzyme solution (2.5 μL). Plate was covered with TopSeal-A and incubated at room temperature for indicated time (Table 3). Four times concentrated Stop solution (5 μL, 10 mM final concentration) was added and incubated for 5 minutes at room temperature. Four times concentrated ULight/Eu-antibody mix solution (5 μL) was added and again plate was covered with TopSeal and incubated overnight at 4° C. TopSeal was removed and HTRF signal was measured at 615 nm and […] (excitation at 320 or 340 nm) on Tecan M1000 Multi mode plate reader. Ratio (665 nm/615 nm)×10^4 was calculated and IC50 values were deduced from Graph-pad prism 4.2.

JAK2 = biological target: T2, JAK2 (Homo sapiens, UniProt O60674); experiment: In vitro enzyme assay (cell-free HTRF kinase assay), JAK2; details: catalytic domain, His-tag; ATP 10 μM, SRCtide 25 nM, reaction 30 min
T2 construct: All enzymes only contain the catalytic domain; His (N); purchased Carna Bioscience, Inc; host or cells: baculovirus expression system
T2 sequence (O60674 849-1124 limits assumed): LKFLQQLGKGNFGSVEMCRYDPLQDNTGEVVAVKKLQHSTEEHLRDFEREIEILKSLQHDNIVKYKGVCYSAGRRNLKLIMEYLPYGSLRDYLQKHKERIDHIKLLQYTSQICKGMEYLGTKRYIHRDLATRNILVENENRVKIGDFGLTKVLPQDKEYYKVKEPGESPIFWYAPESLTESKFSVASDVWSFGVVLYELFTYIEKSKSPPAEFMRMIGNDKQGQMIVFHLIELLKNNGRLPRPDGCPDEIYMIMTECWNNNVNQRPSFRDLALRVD
Protocol: as §1, §2

JAK3 = biological target: T3, JAK3 (Homo sapiens, UniProt P52333); experiment: In vitro enzyme assay (cell-free HTRF kinase assay), JAK3; details: catalytic domain, His-tag; ATP 3 μM, SRCtide 100 nM, reaction 30 min
T3 construct: All enzymes only contain the catalytic domain; His (N); purchased Carna Bioscience, Inc; host or cells: baculovirus expression system
T3 sequence (P52333 822-1111 limits assumed): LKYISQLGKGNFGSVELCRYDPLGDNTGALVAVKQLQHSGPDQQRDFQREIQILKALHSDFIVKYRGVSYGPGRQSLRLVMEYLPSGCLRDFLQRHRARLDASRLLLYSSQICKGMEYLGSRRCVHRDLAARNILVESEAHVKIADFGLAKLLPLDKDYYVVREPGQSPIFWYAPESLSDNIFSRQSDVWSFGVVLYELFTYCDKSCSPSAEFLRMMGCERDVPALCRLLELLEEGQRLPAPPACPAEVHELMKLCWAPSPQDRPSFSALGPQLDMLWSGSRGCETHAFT
Protocol: as §1, §2

| Compound | IC50 (JAK1) | IC50 (JAK2) | IC50 (JAK3) |
| --- | --- | --- | --- |
| Nc1cc(Cl)c(C(=O)c2c[nH]c3cnccc23)c(Cl)c1 [Compound No. 3, (4-Amino-2,6-dichlorophenyl)(1H-pyrrolo[2,3-c]pyridin-3-yl)methanone] | < 1000 nM | < 500 nM | < 1000 nM |
| O=C(c1c(Cl)cccc1Cl)c1c[nH]c2c(NC(=O)C3CC3)nccc12 [Compound No. 5, N-[3-(2,6-Dichlorobenzoyl)-1H-pyrrolo[2,3-c]pyridin-7-yl]cyclopropanecarboxamide] | < 500 nM | < 500 nM | < 500 nM |
| N#Cc1cc(Cl)c(C(=O)c2c[nH]c3cnccc23)c(Cl)c1 [Compound No. 6, 3,5-Dichloro-4-(1H-pyrrolo[2,3-c]pyridin-3-ylcarbonyl)benzonitrile] | < 500 nM | < 500 nM | < 500 nM |
| O=C(c1c(F)cccc1Cl)c1c[nH]c2c(NC(=O)C3CC3)nccc12 [Compound No. 11, N-[3-(2-Chloro-6-fluorobenzoyl)-1H-pyrrolo[2,3-c]pyridin-7-yl]cyclopropanecarboxamide] | < 500 nM | < 100 nM | < 100 nM |
| CNC(=O)c1cc(Cl)c(C(=O)c2c[nH]c3c(NC(=O)C4CC4)nccc23)c(Cl)c1 [Compound No. 12, 3,5-Dichloro-4-({7-[(cyclopropylcarbonyl)amino]-1H-pyrrolo[2,3-c]pyridin-3-yl}carbonyl)-N-methylbenzamide] | < 500 nM | < 500 nM | < 100 nM |
| CCNC(=O)c1cc(Cl)c(C(=O)c2c[nH]c3c(NC(=O)C4CC4)nccc23)c(Cl)c1 [Compound No. 13, 3,5-Dichloro-4-({7-[(cyclopropylcarbonyl)amino]-1H-pyrrolo[2,3-c]pyridin-3-yl}carbonyl)-N-ethylbenzamide] | < 1000 nM | < 500 nM | < 500 nM |
| COCCNC(=O)c1cc(Cl)c(C(=O)c2c[nH]c3c(NC(=O)C4CC4)nccc23)c(Cl)c1 [Compound No. 16, 3,5-Dichloro-4-({7-[(cyclopropylcarbonyl)amino]-1H-pyrrolo[2,3-c]pyridin-3-yl}carbonyl)-N-(2-methoxyethyl)benzamide] | < 1000 nM | < 500 nM | < 500 nM |
| O=C(c1c(Cl)cccc1Cl)c1c[nH]c2cnc(NC(=O)C3CC3)cc12 [Compound No. 18, N-[3-(2,6-Dichlorobenzoyl)-1H-pyrrolo[2,3-c]pyridin-5-yl]cyclopropanecarboxamide] | < 1000 nM | < 100 nM | < 1000 nM |
| O=C(c1c(F)cccc1Cl)c1c[nH]c2cnc(NC(=O)C3CC3)cc12 [Compound No. 19, N-[3-(2-Chloro-6-fluorobenzoyl)-1H-pyrrolo[2,3-c]pyridin-5-yl]cyclopropanecarboxamide] | < 500 nM | < 50 nM | < 500 nM |
| O=C(c1c(Cl)cc(Br)cc1Cl)c1c[nH]c2c(NC(=O)C3CC3)nccc12 [Compound No. 22, N-[3-(4-Bromo-2,6-dichlorobenzoyl)-1H-pyrrolo[2,3-c]pyridin-7-yl]cyclopropanecarboxamide] | < 500 nM | < 1000 nM | < 500 nM |
| Cc1noc(C)c1-c1cc(Cl)c(C(=O)c2c[nH]c3c(NC(=O)C4CC4)nccc23)c(Cl)c1 [Compound No. 23, N-{3-[2,6-Dichloro-4-(3,5-dimethyl-1,2-oxazol-4-yl)benzoyl]-1H-pyrrolo[2,3-c]pyridin-7-yl}cyclopropanecarboxamide] | < 1000 nM | < 500 nM | < 500 nM |
| Nc1cc(Cl)c(C(=O)c2c[nH]c3c(NC(=O)C4CC4)nccc23)c(Cl)c1 [Compound No. 26, N-[3-(4-Amino-2,6-dichlorobenzoyl)-1H-pyrrolo[2,3-c]pyridin-7-yl]cyclopropanecarboxamide] | < 500 nM | < 500 nM | < 100 nM |
| CC(=O)Nc1cc(Cl)c(C(=O)c2c[nH]c3c(NC(=O)C4CC4)nccc23)c(Cl)c1 [Compound No. 27, N-{3-[4-(Acetylamino)-2,6-dichlorobenzoyl]-1H-pyrrolo[2,3-c]pyridin-7-yl}cyclopropanecarboxamide] | < 1000 nM | < 500 nM | < 100 nM |
| O=C(NCCOCCO)c1cc(Cl)c(C(=O)c2c[nH]c3c(NC(=O)C4CC4)nccc23)c(Cl)c1 [Compound No. 29, 3,5-Dichloro-4-({7-[(cyclopropylcarbonyl)amino]-1H-pyrrolo[2,3-c]pyridin-3-yl}carbonyl)-N-[2-(2-hydroxyethoxy)ethyl]benzamide] | < 1000 nM | < 1000 nM | < 500 nM |
| O=C(NCCCO)c1cc(Cl)c(C(=O)c2c[nH]c3c(NC(=O)C4CC4)nccc23)c(Cl)c1 [Compound No. 30, 3,5-Dichloro-4-({7-[(cyclopropylcarbonyl)amino]-1H-pyrrolo[2,3-c]pyridin-3-yl}carbonyl)-N-(3-hydroxypropyl)benzamide] | < 500 nM | < 500 nM | < 500 nM |
| O=C(NCCCN1CCOCC1)c1cc(Cl)c(C(=O)c2c[nH]c3c(NC(=O)C4CC4)nccc23)c(Cl)c1 [Compound No. 31, 3,5-Dichloro-4-({7-[(cyclopropylcarbonyl)amino]-1H-pyrrolo[2,3-c]pyridin-3-yl}carbonyl)-N-[3-(morpholin-4-yl)propyl]benzamide] | < 500 nM | < 1000 nM | < 500 nM |
| O=C(NCC(O)CO)c1cc(Cl)c(C(=O)c2c[nH]c3c(NC(=O)C4CC4)nccc23)c(Cl)c1 (stereo not drawn) [Compound No. 32, 3,5-Dichloro-4-({7-[(cyclopropylcarbonyl)amino]-1H-pyrrolo[2,3-c]pyridin-3-yl}carbonyl)-N-(2,3-dihydroxypropyl)benzamide] | < 500 nM | < 500 nM | < 50 nM |
| CN(C)CCNC(=O)c1cc(Cl)c(C(=O)c2c[nH]c3c(NC(=O)C4CC4)nccc23)c(Cl)c1 [Compound No. 33, 3,5-Dichloro-4-({7-[(cyclopropylcarbonyl)amino]-1H-pyrrolo[2,3-c]pyridin-3-yl}carbonyl)-N-[2-(dimethylamino)ethyl]benzamide] | < 100 nM | < 100 nM | < 100 nM |
| O=C(NCCN1CCCCC1)c1cc(Cl)c(C(=O)c2c[nH]c3c(NC(=O)C4CC4)nccc23)c(Cl)c1 [Compound No. 34, 3,5-Dichloro-4-({7-[(cyclopropylcarbonyl)amino]-1H-pyrrolo[2,3-c]pyridin-3-yl}carbonyl)-N[2-(piperidin-1-yl)ethyl]benzamide] | < 500 nM | < 500 nM | < 500 nM |
| COC(=O)CNC(=O)c1cc(Cl)c(C(=O)c2c[nH]c3c(NC(=O)C4CC4)nccc23)c(Cl)c1 [Compound No. 35, Methyl N-[3,5-dichloro-4-({7-[(cyclopropylcarbonyl)amino]-1H-pyrrolo[2,3-c]pyridin-3-yl}carbonyl)benzoyl]glycinate] | < 500 nM | < 500 nM | < 500 nM |
| O=C(O)CNC(=O)c1cc(Cl)c(C(=O)c2c[nH]c3c(NC(=O)C4CC4)nccc23)c(Cl)c1 [Compound No. 36, N-[3,5-Dichloro-4-({7-[(cyclopropylcarbonyl)amino]-1H-pyrrolo[2,3-c]pyridin-3-yl}carbonyl)benzoyl]glycine] | < 500 nM | < 100 nM | < 50 nM |
